From article PMC11790763, “A Peptide Motif Covering Splice Site B in Neuroligin-1 Binds to Aβ and Acts as a Neprilysin Inhibitor” (Molecular Neurobiology, 2024)
Bridges are numbered along the chain shown (N, C = ends). Roman numbers before positions name the chains, in order. Where no end group is shown, it is not given here.

B1: NL1: recombinant rat neuroligin-1, soluble ectodomain (R&D systems) (protein, UniProt Q62765 46-697, looked up)
extracellular domain: QKLDDVDPLVTTNFGKIRGIKKELNNEILGPVIQFLGVPYAAPPTGEHRFQPPEPPSPWSDIRNATQFAPVCPQNIIDGRLPEVMLPVWFTNNLDVVSSYVQDQSEDCLYLNIYVPTEDVKRISKECARKPGKKICRKGDIRDSGGPKPVMVYIHGGSYMEGTGNLYDGSVLASYGNVIVITVNYRLGVLGFLSTGDQAAKGNYGLLDLIQALRWTSENIGFFGGDPLRITVFGSGAGGSCVNLLTLSHYSEGNRWSNSTKGLFQRAIAQSGTALSSWAVSFQPAKYARILATKVGCNVSDTVELVECLQKKPYKELVDQDVQPARYHIAFGPVIDGDVIPDDPQILMEQGEFLNYDIMLGVNQGEGLKFVENIVDSDDGVSASDFDFAVSNFVDNLYGYPEGKDVLRETIKFMYTDWADRHNPETRRKTLLALFTDHQWVAPAVATADLHSNFGSPTYFYAFYHHCQTDQVPAWADAAHGDEVPYVLGIPMIGPTELFPCNFSKNDVMLSAVVMTYWTNFAKTGDPNQPVPQDTKFIHTKPNRFEEVAWTRYSQKDQLYLHIGLKPRVKEHYRANKVNLWLELVPHLHNLNDISQYTSTTTKVPSTDITLRPTRKNSTPVTSAFPTAKQDDPKQQPSPFSVDQRDYSTELS
modifications: extracellular domain

Experiments:
Aβ1-42 = target: T1, Aβ1-42 (Homo sapiens, UniProt P05067); experiment: Aβ1-42 aggregation assay (thioflavin T fluorescence); conditions: 8 days, 50 mM Tris pH 7.4, ThT 5 μM, triplicates, slopes compared with Aβ alone
T1 construct: Aβ1-42, at a final concentration of 75 μM (pH 7.4); purchased Bachem AG (Bubendorf, Switzerland) or Schafer-N; host or cells: synthetic peptide
T1 sequence (P05067 672-713): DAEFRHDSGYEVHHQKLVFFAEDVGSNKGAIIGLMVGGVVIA
Procedure: Aβ1-42 was dissolved in sterile deionized water to a final concentration of 1 mM. Then, the peptide was subjected to a basic shock by adding 2 M NaOH to pH 12 followed by neutralization with 1 M HCl. Aβ1-42, at a final concentration of 75 μM (pH 7.4) either alone or in combination with NL1 (1 μM), neurolide (10 μM), or NLp7 (10 μM), was loaded in triplicates on 96-well plate. Immediately after mixing the samples, thioflavin T (5 μM, ThT; Sigma-Aldrich), dissolved in the aggregation buffer (50 mM Tris, pH 7.4), was added to wells and plate was incubated at 37 °C for 8 days. The formation of beta-amyloid aggregates was monitored first for 210 min and then every 24 h by recording changes in ThT fluorescence at excitation/emission (Ex/Em) = 440/482 nm.

[1] = Integrity after prolonged incubation under aggregation assay conditions (immunoblot); assay type: physicochemical; conditions: aggregation buffer 50 mM Tris pH 7.4, 37 °C, 8 days; His-tagged NL1 200 nM, biotinylated neurolide 6.7 μM; SDS-PAGE and Western blot versus fresh samples
Procedure: After 8-day incubation, they were subjected to conventional SDS polyacrylamide gel electrophoresis on a pre-casted gel (Any kD Mini-PROTEAN TGX gel, Bio-Rad) and transferred to a PVDF membranes (Millipore) together with freshly prepared samples of sNL1 and b-neurolide as corresponding positive controls. Subsequently, membranes were blocked in 5% (wt/vol) non-fat dry milk in PBST (PBS containing 0.05% [vol/vol] Tween-20). To detect sNL1, blots were probed overnight with a 6x-His tag monoclonal antibody (1:2000, Thermo Fisher Scientific) at 4 °C, followed by incubation for 1 h at room temperature with an anti-mouse horseradish peroxidase (HRP)-conjugated secondary antibody (1:10,000, Thermo Fisher Scientific). B-neurolide was detected by incubation for 1 h at room temperature with a streptavidin-HRP complex (1:5000, Dako). Chemiluminescent signal on the blot was developed by employing the SuperSignal ELISA Femto Substrate kit (Thermo Fisher Scientific) according to the manufacturer’s instructions, and images were acquired using an AlphaImager system (Alpha Innotech).
Supplementary file 12035_2024_4475_Fig8_ESM.png: Supplementary Fig. 3. […] NL1 (200 nM; R&D Systems) and biotinylated neurolide (6.7 μM; Schafer-N) were dissolved in the aggregation buffer, incubated at 37°C for 8 days, followed by conventional immunoblotting. […]

brain-derived NEP = target: T2, brain-derived NEP (Mus musculus, UniProt Q61391); experiment: Neprilysin activity in NEP-enriched brain membrane fraction of WT mice; assay type: biochemical, mouse (C57Bl/6j); conditions: 40 μg protein, n = 5
T2 construct: Clear supernatants were used as membrane-extracted fractions; from tissue; host or cells: adult mouse brain without cerebellum, Triton X-100-extracted membrane fraction
T2 sequence (Q61391 1-750): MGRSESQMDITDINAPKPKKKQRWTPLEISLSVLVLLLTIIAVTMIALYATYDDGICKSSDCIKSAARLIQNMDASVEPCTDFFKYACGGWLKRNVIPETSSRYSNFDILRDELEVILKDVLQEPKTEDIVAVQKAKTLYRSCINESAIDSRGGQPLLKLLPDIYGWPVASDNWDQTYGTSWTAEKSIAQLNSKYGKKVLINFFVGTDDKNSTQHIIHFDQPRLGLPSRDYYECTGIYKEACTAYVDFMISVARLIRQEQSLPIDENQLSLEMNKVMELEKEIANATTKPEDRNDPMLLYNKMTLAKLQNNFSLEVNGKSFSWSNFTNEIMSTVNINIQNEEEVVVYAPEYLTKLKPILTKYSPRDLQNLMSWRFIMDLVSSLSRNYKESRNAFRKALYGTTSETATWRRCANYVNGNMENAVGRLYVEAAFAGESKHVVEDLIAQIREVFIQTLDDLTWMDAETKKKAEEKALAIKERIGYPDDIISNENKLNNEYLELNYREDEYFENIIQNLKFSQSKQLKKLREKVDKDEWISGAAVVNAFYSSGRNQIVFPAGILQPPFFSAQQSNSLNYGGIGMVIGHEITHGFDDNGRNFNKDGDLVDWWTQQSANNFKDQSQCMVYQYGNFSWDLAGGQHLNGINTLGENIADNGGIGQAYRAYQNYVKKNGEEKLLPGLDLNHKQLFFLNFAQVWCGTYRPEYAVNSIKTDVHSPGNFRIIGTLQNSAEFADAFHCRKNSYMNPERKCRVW
Procedure: To measure NEP activity in brain tissue, whole brains without cerebellum were dissected from adult mice (C57Bl/6j or 5XFAD) and homogenized with a Teflon-glass homogenizer in five volumes (w/v) of ice-cold lysis buffer containing PBS (pH 7.4), 0.25 M sucrose and protease inhibitor cocktail (Complete™, EDTA-free, Roche Diagnostics, Indianapolis, IN). The homogenates were centrifuged at 9000 × g for 15 min at 4 °C. The supernatants were further centrifuged at 20,000 × g at 4 °C for 20 min. The resulting pellets were solubilized in resuspension buffer containing PBS (pH 7.4) and 1% Triton X-100 for 1 h on ice and again centrifuged at 20,000 × g at 4 °C for 20 min. Clear supernatants were used as membrane-extracted fractions. Protein concentrations of Triton-extracted membrane fractions were determined using the Pierce BCA Protein Assay kit (Thermo Fisher Scientific). The standard assay mixture consisted of membrane fraction containing 40 μg total protein diluted in 40 μl of dilution buffer, 10 μl of testing compound (NL1, neurolide or vehicle), and 50 μl of NEP substrate (5-FAM/QXL; Anaspec) in a total volume of 100 μl. The reaction was initiated by adding substrate to the assay mixture. […] Positive and negative controls were set up according to the manufacturer’s protocol (Anaspec). Fluorescence was measured at Ex/Em = 485/535 nm every 20 min for 2 h. The data were expressed as percentage of relative activity of neprilysin.

| Molecule | development of ThT fluorescence (Aβ aggregation) (Aβ1-42; 75 μM Aβ1-42 + 10 μM peptide, 37 °C) | integrity after prolonged incubation [1] | activity of brain-derived NEP (brain-derived NEP; neurolide 10 μM) | rise of ThT fluorescence (Aβ aggregation) (Aβ1-42; 75 μM Aβ1-42 + 1 μM sNL1, 37 °C, Ex/Em 440/482 nm) | activity of brain-derived NEP (brain-derived NEP; sNL1 0.3 μM) |
| --- | --- | --- | --- | --- | --- |
| I: SEGNRWSNSTKGLFQRAKK-NH2 / II: SEGNRWSNSTKGLFQRAK / III: SEGNRWSNSTKGLFQRA / IV: SEGNRWSNSTKGLFQRA (amide I:18-IV:C, I:19-II:C, II:18-III:C; C-terminus assumed) [neurolide] | attenuate Aβ peptide aggregation | remained intact | significantly decreased |  |  |
| B1 |  | remained intact |  | significantly decreased | significantly decreased |
